Data on 27 molecules can be found in patent US8278345B2, “Inhibitors of glutaminyl cyclase” (Probiodrug AG, priority 2006, dated 2012).

The target of the test is hQC (Homo sapiens, UniProt Q16769). Nature of the test: Inhibitor assay for glutaminyl cyclase activity (fluorometric, H-Gln-βNA / H-Gln-AMC). It is filed as biochemical. In outline: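 Coupled fluorometric assay at 30 °C with pyroglutamyl aminopeptidase, in Tris/HCl pH 8.0 with EDTA, substrate H-Gln-βNA (0.2 mM; ex/em 320/410 nm) or H-Gln-AMC (ex/em 380/460 nm), initiated by QC. Screening: 4 mM inhibitor, substrate at 1 KM; Ki from progress curves fitted to competitive inhibition.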

Setting [1] is: compound from preparative synthesis, purified, read-out: IC50 hQC.

Structures are written as SMILES. Where two headings read alike, the source gives them in different places.

Sequence of hQC (Q16769 29-361): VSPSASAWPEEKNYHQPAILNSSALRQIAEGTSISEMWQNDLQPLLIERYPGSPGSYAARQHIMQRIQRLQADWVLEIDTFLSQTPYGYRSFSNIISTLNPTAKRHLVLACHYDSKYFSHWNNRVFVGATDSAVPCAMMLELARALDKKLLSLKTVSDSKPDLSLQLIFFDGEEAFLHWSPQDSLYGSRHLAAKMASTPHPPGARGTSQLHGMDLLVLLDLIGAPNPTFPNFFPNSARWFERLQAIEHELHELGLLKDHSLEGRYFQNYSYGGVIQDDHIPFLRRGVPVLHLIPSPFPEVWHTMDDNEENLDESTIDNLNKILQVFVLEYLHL

By IC50 is commonly meant the concentration at which inhibition is half-maximal. With `CCC1=C(O)C(=O)N(c2ccc3[nH]cnc3c2)C1c1cc(C)ccc1O` (centres unmarked) [Compound 282, 1-(1H-Benzoimidazol-5-yl)-4-ethyl-3-hydroxy-5-(2-hydroxy-5-methyl-phenyl)-1,5-dihydro-pyrrol-2-one], the concentration for half-maximal inhibition (IC50) (read-out: IC50) stood at 670 nM. The same measure, in the same setting: with `Cc1ccc2occ(C3C(c4ccc(O)cc4)=C(O)C(=O)N3c3ccc4[nH]cnc4c3)c(=O)c2c1` (centres unmarked) [Compound 280, 1-(1H-Benzoimidazol-5-yl)-3-hydroxy-4-(4-hydroxy-phenyl)-5-(6-methyl-4-oxo-4H-chromen-3-yl)-1,5-dihydro-pyrrol-2-one] the figure was 310 nM. The same measure, in the same setting: with `CC1=C(O)C(=O)N(c2ccc3[nH]cnc3c2)C1c1c(F)c(F)cc(F)c1F` (centres unmarked) [Compound 393, 1-(1H-Benzoimidazol-5-yl)-3-hydroxy-4-methyl-5-(2,3,5,6-tetrafluoro-phenyl)-1,5-dihydro-pyrrol-2-one] the figure was 4090 nM. In the case of `CC1=C(O)C(=O)N(CCCn2ccnc2)C1c1cc[nH]n1` (centres unmarked) [Compound 23, 3-Hydroxy-1-(3-imidazol-1-yl-propyl)-4-methyl-5-(1H-pyrazol-3-yl)-1,5-dihydro-pyrrol-2-one], where the note is “read-out: IC50”, the IC50 was found to be 7600 nM. Same read-out and setting: with `CC1=C(O)C(=O)N(CCCn2ccnc2)C1C` (centres unmarked) [Compound 31, 3-Hydroxy-1-(3-imidazol-1-yl-propyl)-4,5-dimethyl-1,5-dihydro-pyrrol-2-one] the figure was 6700 nM. For the molecule `CCCCCC1=C(O)C(=O)N(CCCn2ccnc2)C1c1ccco1` (centres unmarked) [Compound 213, 5-Furan-2-yl-3-hydroxy-1-(3-imidazol-1-yl-propyl)-4-pentyl-1,5-dihydro-pyrrol-2-one], the IC50 was determined as 1310 nM under setting [1] and 40 nM (read-out: IC50).

Turning to `O=C1C(O)=C(c2c[nH]c3ccccc23)C(c2ccc3nsnc3c2)N1c1ccc2[nH]cnc2c1` (centres unmarked) [Compound 457], the IC50 (read-out: IC50) turned out to be 4 nM. Same read-out and setting: with `CCCC(=O)C1=C(O)C(=O)N(c2ccc3[nH]cnc3c2)C1c1ccnc2ccccc12` (centres unmarked) [Compound 404, 1-(1H-Benzoimidazol-5-yl)-4-butyryl-3-hydroxy-5-quinolin-4-yl-1,5-dihydro-pyrrol-2-one] the figure was 1570 nM; with `COc1ccc(C2C(C)=C(O)C(=O)N2CCCn2ccnc2)cc1` (centres unmarked) [Compound 27, 3-Hydroxy-1-(3-imidazol-1-yl-propyl)-5-(4-methoxy-phenyl)-4-methyl-1,5-dihydro-pyrrol-2-one], 4000 nM. Same read-out and setting: with `CCC1=C(O)C(=O)N(CCCn2ccnc2)C1C1CCC=CO1` (centres unmarked) [Compound 237, 5-(3,4-Dihydro-2H-pyran-2-yl)-4-ethyl-3-hydroxy-1-(3-imidazol-1-yl-propyl)-1,5-dihydro-pyrrol-2-one] the figure was 400 nM; with `CC(C)CC(=O)C1=C(O)C(=O)N(c2ccc3[nH]cnc3c2)C1c1c[nH]cn1` (centres unmarked) [Compound 461, 1-(1H-Benzoimidazol-5-yl)-3-hydroxy-5-(1H-imidazol-4-yl)-4-(3-methyl-butyryl)-1,5-dihydro-pyrrol-2-one], 4000 nM; with `CCCCCC1=C(O)C(=O)N(CCCn2ccnc2)C1/C=C/C(C)C` (centres unmarked) [Compound 190, 3-Hydroxy-1-(3-imidazol-1-yl-propyl)-5-(3-methyl-but-1-enyl)-4-pentyl-1,5-dihydro-pyrrol-2-one], 400 nM. The same measure, in the same setting: with `COc1ccc(C2C(C(C)C)=C(O)C(=O)N2CCCn2ccnc2)cc1` (centres unmarked) [Compound 59, 3-Hydroxy-1-(3-imidazol-1-yl-propyl)-4-isopropyl-5-(4-methoxy-phenyl)-1,5-dihydro-pyrrol-2-one] the figure was 400 nM; with `CCCCCC1=C(O)C(=O)N(CCCn2ccnc2)C1c1c(O)ccc2ccccc12` (centres unmarked) [Compound 207, 3-Hydroxy-5-(2-hydroxy-naphthalen-1-yl)-1-(3-imidazol-1-yl-propyl)-4-pentyl-1,5-dihydro-pyrrol-2-one], 3100 nM; with `CC1=C(O)C(=O)N(CCCn2ccnc2)C1c1c(O)ccc2ccccc12` (centres unmarked) [Compound 42, 3-Hydroxy-5-(2-hydroxy-naphthalen-1-yl)-1-(3-imidazol-1-yl-propyl)-4-methyl-1,5-dihydro-pyrrol-2-one], 2200 nM. `Cc1ccc(C2C(C(C)C)=C(O)C(=O)N2CCCn2ccnc2)cc1` (centres unmarked) [Compound 54, 3-Hydroxy-1-(3-imidazol-1-yl-propyl)-4-isopropyl-5-p-tolyl-1,5-dihydro-pyrrol-2-one]: the half-inhibitory concentration (IC50) (read-out: IC50) was determined as 400 nM. Regarding `CCCCCC1=C(O)C(=O)N(CCCn2ccnc2)C1c1cccs1` (centres unmarked) [Compound 210, 3-Hydroxy-1-(3-imidazol-1-yl-propyl)-4-pentyl-5-thiophen-2-yl-1,5-dihydro-pyrrol-2-one], the half-maximal inhibitory concentration (IC50) was found to be 588 nM under setting [1] and 40 nM (read-out: IC50). On to `CC(C)C1=C(O)C(=O)N(CCCn2ccnc2)C1c1ccco1` (centres unmarked) [Compound 72, 5-Furan-2-yl-3-hydroxy-1-(3-imidazol-1-yl-propyl)-4-isopropyl-1,5-dihydro-pyrrol-2-one], for which, for the setting “read-out: IC50”, the 50% inhibitory concentration (IC50) stood at 2200 nM. For `O=C1C(O)=C(c2ccc(O)cc2)C(c2cccc(Cl)c2)N1CCCn1ccnc1` (centres unmarked) [Compound 179, 5-(3-Chloro-phenyl)-3-hydroxy-4-(4-hydroxy-phenyl)-1-(3-imidazol-1-yl-propyl)-1,5-dihydro-pyrrol-2-one], the 50% inhibitory concentration (IC50) (read-out: IC50) came out at 40 nM. On the same count and under the same terms, with `CC(C)C1=C(O)C(=O)N(CCCn2ccnc2)C1c1cccc(O)c1` (centres unmarked) [Compound 75, 3-Hydroxy-5-(3-hydroxy-phenyl)-1-(3-imidazol-1-yl-propyl)-4-isopropyl-1,5-dihydro-pyrrol-2-one] the figure was 4900 nM; with `O=C1C(O)=C(c2ccccc2)C(c2ccncc2)N1CCCn1ccnc1` (centres unmarked) [Compound 102, 3-Hydroxy-1-(3-imidazol-1-yl-propyl)-4-phenyl-5-pyridin-4-yl-1,5-dihydro-pyrrol-2-one], 8500 nM; with `CC(C)CC(=O)C1=C(O)C(=O)N(c2ccc3[nH]cnc3c2)C1CCC(=O)O` (centres unmarked) [Compound 447, 3-[1-(1H-Benzoimidazol-5-yl)-4-hydroxy-3-(3-methyl-butyryl)-5-oxo-2,5-dihydro-1H-pyrrol-2-yl]-propionic acid], 2560 nM. Still for that read-out and setting: with `CCC(C)C1C(c2ccccc2)=C(O)C(=O)N1CCCn1ccnc1` (centres unmarked) [Compound 79, 5-sec-Butyl-3-hydroxy-1-(3-imidazol-1-yl-propyl)-4-phenyl-1,5-dihydro-pyrrol-2-one] the figure was 400 nM; with `O=C1C(O)=C(c2ccc(O)cc2)C(c2cc[nH]n2)N1CCCn1ccnc1` (centres unmarked) [Compound 151, 3-Hydroxy-4-(4-hydroxy-phenyl)-1-(3-imidazol-1-yl-propyl)-5-(1H-pyrazol-3-yl)-1,5-dihydro-pyrrol-2-one], 40 nM; with `CC(=O)C1=C(O)C(=O)N(c2ccc3[nH]cnc3c2)C1CCC(=O)O` (centres unmarked) [Compound 450, 3-[3-Acetyl-1-(1H-benzoimidazol-5-yl)-4-hydroxy-5-oxo-2,5-dihydro-1H-pyrrol-2-yl]-propionic acid], 9490 nM. `CCC1=C(O)C(=O)N(CCCn2ccnc2)C1Cc1ccccc1` (centres unmarked) [Compound 242, 5-Benzyl-4-ethyl-3-hydroxy-1-(3-imidazol-1-yl-propyl)-1,5-dihydro-pyrrol-2-one]: the IC50 (read-out: IC50) came out at 2200 nM. On to `O=C1C(O)=C(c2ccc(O)cc2)C(c2cccs2)N1CCCn1ccnc1` (centres unmarked) [Compound 173, 3-Hydroxy-4-(4-hydroxy-phenyl)-1-(3-imidazol-1-yl-propyl)-5-thiophen-2-yl-1,5-dihydro-pyrrol-2-one], for which the IC50 (read-out: IC50) worked out at 40 nM.
